In patent publication US10752900B2, “Oligonucleotides for modulating gene expression and uses thereof” (BIOGENERA S.P.A., priority 2012, dated 2020):

What was measured:
[1] = tested on: MYCN gene; assay: QT-PCR, MYCN mRNA in WiT49 cells; assay type: cell-based, human; conditions: Table 6
Experimental: For the purpose of assessing the ability of the oligonucleotides of the present invention to modulate the expression of the target genes, their ability to reduce the quantity of messenger RNA was analyzed using the Real-Time PCR technique. For this purpose, use was made of 24-well plates, which were seeded with 5.0×10^4 cells with 0.3 ml of OPTI-MEM (GIBCO BRL) medium, 4% FBS and 2 mM L-glutammine (experiments in triplicate) per well. The cells were incubated for 24 hours at 37° C., in an atmosphere containing 5% CO2 to permit adherence to the base of the wells. For each well, the oligonucleotides were analyzed at the following final concentrations: • the antisense oligonucleotides siRNA and siRNA gapmer (i.e. the oligonucleotides containing one or more monomers of chemically modified nucleic acids at the 3' or 5' end, while in the central portion they have monomers of nucleic acids that have not been modified or have been modified at the level of the phosphodiester bond as a phosphorothioate bond) were used at 200 nM; • the antisense oligonucleotides containing phosphorothioate DNA monomers, the RNA antigene oligonucleotides (agRNA) and the oligonucleotides containing DNA monomers and LNA monomers were used at 10 μM; • the morpholino oligonucleotides were used at a concentration of 1 μM, and • the PNA oligonucleotides were administered at a concentration of 1 μM. The cells were treated with the oligonucleotides, adding FBS up to 4% 6 hours after administration of the same. After 24 hours the total RNA was extracted from each well and purified using the RNeasy Mini Kit (QIAGEN). Assays were performed on 8 cell lines obtained from 5 different human tumours which are correlated with MYCN expression, i.e.: • as a neuroblastoma model use was made of the cell lines Kelly, IMR-32 (where the MYCN gene is amplified and superexpressed) and SKNBE2c and LAN1 (where the MYCN gene is amplified and superexpressed and the p53 gene is mutated); • as a rabdomiosarcoma model use was made of the cell line RH30, where the MYCN gene is amplified and superexpressed; • as a Wilms' tumour model use was made of the cell line WiT49, where the MYCN gene is amplified and superexpressed; • as a retinoblastoma model use was made of the cell line Y79, where the MYCN gene is amplified and superexpressed; and • as a model of small cell lung cancer use was made of the cell line H69 where the MYCN gene is amplified and superexpressed. As a control, use was made of the same cell lines as listed above treated with sterile water instead of oligonucleotides. Each RNA sample was quantified (in duplicate) using a NanoDrop ND-1000 spectrophotometer (NanoDrop Technologies). The first strand of cDNA was produced using the cDNA Synthesis Kit for RT-PCR (Roche). For the cDNA synthesis reaction a total of 1 μg of RNA was used. For the real-time PCR, 10 ng of cDNA in a final volume of 20 μl was used with SYBR Green Master Mix 2× (Applied Biosystems) (3 identical experiments were conducted in triplicate). Two housekeeping genes were used as positive controls: GAPDH and beta-actin (ACTB). The conditions of the QT-PCR reaction were: 10 min at 95° C., 20 sec at 95° C., and 30 sec at 60° C., for 50 cycles. The PNAs having SEQ ID NO: 1-12 were also tested on different cell lines which overexpress MYCN (Kelly, SKNBE2c, RH30, […] 1 and H69). The results are shown in Table 6 and confirm the selectivity and specificity of the inhibition effect of the PNAs on the product of protein translation of the MYCN gene.

[2] = tested on: MYCN gene; assay: QT-PCR, MYCN mRNA in H69 cells; assay type: cell-based, human; conditions: Table 6
Experimental: For the purpose of assessing the ability of the oligonucleotides of the present invention to modulate the expression of the target genes, their ability to reduce the quantity of messenger RNA was analyzed using the Real-Time PCR technique.
For this purpose, use was made of 24-well plates, which were seeded with 5.0×10^4 cells with 0.3 ml of OPTI-MEM (GIBCO BRL) medium, 4% FBS and 2 mM L-glutammine (experiments in triplicate) per well.
The cells were incubated for 24 hours at 37° C., in an atmosphere containing 5% CO2 to permit adherence to the base of the wells.
For each well, the oligonucleotides were analyzed at the following final concentrations: • the antisense oligonucleotides siRNA and siRNA gapmer (i.e. the oligonucleotides containing one or more monomers of chemically modified nucleic acids at the 3′ or 5′ end, while in the central portion they have monomers of nucleic acids that have not been modified or have been modified at the level of the phosphodiester bond as a phosphorothioate bond) were used at 200 nM; • the antisense oligonucleotides containing phosphorothioate DNA monomers, the RNA antigene oligonucleotides (agRNA) and the oligonucleotides containing DNA monomers and LNA monomers were used at 10 μM; • the morpholino oligonucleotides were used at a concentration of 1 μM, and • the PNA oligonucleotides were administered at a concentration of 1 μM.
The cells were treated with the oligonucleotides, adding FBS up to 4% 6 hours after administration of the same. After 24 hours the total RNA was extracted from each well and purified using the RNeasy Mini Kit (QIAGEN).
Assays were performed on 8 cell lines obtained from 5 different human tumours which are correlated with MYCN expression, i.e.: • as a neuroblastoma model use was made of the cell lines Kelly, IMR-32 (where the MYCN gene is amplified and superexpressed) and SKNBE2c and LAN1 (where the MYCN gene is amplified and superexpressed and the p53 gene is mutated); • as a rabdomiosarcoma model use was made of the cell line RH30, where the MYCN gene is amplified and superexpressed; • as a Wilms' tumour model use was made of the cell line WiT49, where the MYCN gene is amplified and superexpressed; • as a retinoblastoma model use was made of the cell line Y79, where the MYCN gene is amplified and superexpressed; and • as a model of small cell lung cancer use was made of the cell line H69 where the MYCN gene is amplified and superexpressed.
As a control, use was made of the same cell lines as listed above treated with sterile water instead of oligonucleotides. Each RNA sample was quantified (in duplicate) using a NanoDrop ND-1000 spectrophotometer (NanoDrop Technologies). The first strand of cDNA was produced using the cDNA Synthesis Kit for RT-PCR (Roche). For the cDNA synthesis reaction a total of 1 μg of RNA was used. For the real-time PCR, 10 ng of cDNA in a final volume of 20 μl was used with SYBR Green Master Mix 2× (Applied Biosystems) (3 identical experiments were conducted in triplicate). Two housekeeping genes were used as positive controls: GAPDH and beta-actin (ACTB).
The conditions of the QT-PCR reaction were: 10 min at 95° C., 20 sec at 95° C., and 30 sec at 60° C., for 50 cycles.
The PNAs having SEQ ID NO: 1-12 were also tested on different cell lines which overexpress MYCN (Kelly, SKNBE2c, RH30, WiT49, WERI-Rb1 1 and H69). The results are shown in Table 6 and confirm the selectivity and specificity of the inhibition effect of the PNAs on the product of protein translation of the MYCN gene.
The oligonucleotides were tested in vitro (at a concentration of 2.5 μM) to determine their ability to inhibit the transcription of the gene they are directed against by measuring the levels of the gene messenger in cellular models in which the gene of interest is overexpressed. The methods used are the ones described in example 1. […]

SEQ ID NO: 3: PNA antigene oligonucleotide GATGCGGGGGGCTCCT directed against MYCN (PNA backbone, chemistry not fully specified)
WiT49 % mRNA [1]: 75%
H69 % mRNA [2]: 55%

SEQ ID NO: 12: PNA antigene oligonucleotide TGTCTGGACGCGCTGG directed against MYCN (all peptide nucleic acid (PNA))
WiT49 % mRNA [1]: 62%
H69 % mRNA [2]: 40%

SEQ ID NO: 6: PNA antigene oligonucleotide TGGACGCGCTGGGTGG directed against MYCN (PNA backbone, chemistry not fully specified)
WiT49 % mRNA [1]: 68%
H69 % mRNA [2]: 55%

SEQ ID NO: 9: PNA antigene oligonucleotide CCCTGCAGTCGGCGGG directed against MYCN (all peptide nucleic acid (PNA))
WiT49 % mRNA [1]: 66%
H69 % mRNA [2]: 50%

SEQ ID NO: 4: PNA antigene oligonucleotide GTCGGCGGGAGGTAAG directed against MYCN (PNA backbone, chemistry not fully specified)
WiT49 % mRNA [1]: 73%
H69 % mRNA [2]: 55%

SEQ ID NO: 11: PNA antigene oligonucleotide GGGAACTGTGTTGGAG directed against MYCN (PNA backbone, chemistry not fully specified)
WiT49 % mRNA [1]: 60%
H69 % mRNA [2]: 41%

SEQ ID NO: 8: PNA antigene oligonucleotide GTCTGGACGCGCTGGG directed against MYCN (all peptide nucleic acid (PNA))
WiT49 % mRNA [1]: 72%
H69 % mRNA [2]: 56%

SEQ ID NO: 5: PNA antigene oligonucleotide GCTGGGTGGATGCGGG directed against MYCN (PNA backbone, chemistry not fully specified)
WiT49 % mRNA [1]: 69%
H69 % mRNA [2]: 54%

SEQ ID NO: 2: PNA antigene oligonucleotide GGGTGGATGCGGGGGG directed against MYCN (PNA backbone, chemistry not fully specified)
WiT49 % mRNA [1]: 78%
H69 % mRNA [2]: 58%

SEQ ID NO: 7: PNA antigene oligonucleotide CGCGCTGGGTGGATGC directed against MYCN (all peptide nucleic acid (PNA))
WiT49 % mRNA [1]: 70%
H69 % mRNA [2]: 55%

SEQ ID NO: 1: PNA ATGCCGGGCATGATCT against MYCN; subject of patent EP 1618195, control sequence used for comparison (all peptide nucleic acid (PNA)) [reference compound]
WiT49 % mRNA [1]: 62%
H69 % mRNA [2]: 40%

SEQ ID NO: 10: PNA antigene oligonucleotide CGGCCGCGGGCCGCCA directed against MYCN (PNA backbone, chemistry not fully specified)
WiT49 % mRNA [1]: 60%
H69 % mRNA [2]: 41%
